Assay results published in patent publication US10828305B2 (SHANGHAI PHARMACEUTICALS HOLDING CO., LTD., priority 2016, dated 2020).

What was measured:
ErbB2 kinase = ErbB2 kinase (Homo sapiens, UniProt P04626); assay: Enzymatic experiment on ErbB2 (HTRF kinEASE-TK); assay type: biochemical; conditions: ATP 4 μM; read-out: Kinase IC50 (nM) in vitro ErbB2
Experimental: (§1) Enzymatic Experiment on EGFR/ErbB2
(§2) Firstly, preparing 1× reaction buffer required for the kinase, 5× Enzymatic buffer (HEPES 20 mM pH7.0, NaN3 0.1%, BSA 0.05%, sodium orthovanadate 0.5 mM) in the HTRF kinEASE-TK kit was diluted to 1 time with deionized water, 50 nM Supplement Enzymatic buffer (SEB reagent), 1 mM MnCl2, 5 mM MgCl2 and 1 mM DTT were added. Secondly, preparing 5× compound, 10 mM test compound stock solution was diluted in multiple steps with DMSO in a 96-well compound plate to prepare 100× compound as initial concentration, which was then used as the first concentration to perform a 3-fold gradient dilution with DMSO to obtain 10 concentrations. Afterwards, 1 μl gradient dilution was added to 19 μl 1× reaction buffer to prepare 5× compound for use. Then 2 μl 5× compound was transferred from the 96 well plate into a 384-well plate. To the compound-free control wells was added with 2 μl the following liquid: 19 μl 1× reaction buffer with addition of 1 μl DMSO. To the blank control wells was added 2 μl 250 mM EDTA. The third step was enzymatic reaction, the kinase, substrate (TK Substrate-biotin) and ATP were formulated into 2.5× enzyme/substrate mixture and 2.5×ATP solution using 1× reaction buffer respectively. The final concentration of ErbB2 kinase was 0.06 ng/μl, the final concentration of ATP was 4 μM; the final concentration of EGFR kinase was 0.06 units/μl, the final concentration of ATP was 1.65 μM; 4 μl 2.5× enzyme/substrate mixture was added to a 384-well plate, which was incubated at room temperature for 5 minutes; 4 μl 2.5×ATP solution was added to each well and the mixture was allowed to react for 30 minutes at room temperature. The fourth step was termination of the reaction, HTRF Detection buffer was used to prepare a mixture of 2×TK Antibody-Eu(K) and Sa-XL665, the amount of TK Antibody-Eu(K) was 5 μl per well. After the enzymatic reaction was performed for 30 minutes, 10 μl of the above liquid was added to the 384-well plate and the mixture was allowed to react at room temperature for 1 hour. The data was measured on EnVision™, the laser of 337 nm wavelength was selected as the excitation light, RFU665 nM and RFU620 nM were measured, and […]/RFU620 nM×10000 was used as the final data for analysis.

EGFR kinase = EGFR kinase (Homo sapiens, UniProt P00533); assay: Enzymatic experiment on EGFR (HTRF kinEASE-TK); assay type: biochemical; conditions: ATP 1.65 μM; read-out: Kinase IC50 (nM) in vitro EGFR
EGFR kinase, sequence (P00533 25-1210): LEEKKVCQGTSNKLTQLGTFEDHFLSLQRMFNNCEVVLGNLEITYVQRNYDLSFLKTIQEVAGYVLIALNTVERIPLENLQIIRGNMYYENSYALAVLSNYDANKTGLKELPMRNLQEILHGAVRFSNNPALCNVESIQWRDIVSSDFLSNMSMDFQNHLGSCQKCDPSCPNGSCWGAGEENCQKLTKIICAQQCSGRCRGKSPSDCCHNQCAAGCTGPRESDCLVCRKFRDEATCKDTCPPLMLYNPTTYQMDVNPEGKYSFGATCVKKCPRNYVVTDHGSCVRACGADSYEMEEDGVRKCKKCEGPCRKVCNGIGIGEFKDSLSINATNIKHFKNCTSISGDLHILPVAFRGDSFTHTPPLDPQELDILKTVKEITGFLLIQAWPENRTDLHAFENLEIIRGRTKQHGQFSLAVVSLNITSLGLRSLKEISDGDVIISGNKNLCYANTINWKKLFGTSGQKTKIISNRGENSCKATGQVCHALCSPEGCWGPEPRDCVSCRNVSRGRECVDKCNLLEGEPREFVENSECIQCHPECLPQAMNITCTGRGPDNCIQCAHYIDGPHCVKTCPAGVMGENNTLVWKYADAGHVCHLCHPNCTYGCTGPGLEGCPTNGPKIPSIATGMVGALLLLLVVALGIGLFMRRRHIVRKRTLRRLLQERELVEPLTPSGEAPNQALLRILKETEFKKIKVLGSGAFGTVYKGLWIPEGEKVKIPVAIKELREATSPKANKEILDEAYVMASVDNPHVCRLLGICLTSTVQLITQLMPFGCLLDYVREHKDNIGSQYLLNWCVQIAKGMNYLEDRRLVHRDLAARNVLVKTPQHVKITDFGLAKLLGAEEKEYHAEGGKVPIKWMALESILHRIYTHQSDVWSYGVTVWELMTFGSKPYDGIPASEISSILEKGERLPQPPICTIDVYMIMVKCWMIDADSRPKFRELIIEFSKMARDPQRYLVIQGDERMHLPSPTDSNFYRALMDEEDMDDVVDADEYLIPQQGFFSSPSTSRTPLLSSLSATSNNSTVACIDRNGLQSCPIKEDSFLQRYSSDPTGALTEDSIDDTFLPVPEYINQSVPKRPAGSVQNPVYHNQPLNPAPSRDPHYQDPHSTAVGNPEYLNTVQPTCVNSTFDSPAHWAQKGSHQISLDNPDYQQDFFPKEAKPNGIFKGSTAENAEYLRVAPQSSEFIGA
Experimental: as §1, §2

N87 = assay: Proliferation inhibition assay in vitro, N87 (CellTiter-Glo); assay type: cell-based; conditions: Homo sapiens; 72 hours; read-out: IC50(nM) cell N87
Experimental: (§3) Proliferation Inhibition Assay In Vitro of Cell Lines
(§4) 1. Cell culture and inoculation: on the first day of the experiment, normal cultured cells were taken in the exponential growth phase, the cells were dispersed by digesting, then the cell density was adjusted to 8.8×10^4 cells/mL for BT-474 and 6.6×10^4 cells/mL for N87, 90 μl of which were inoculated to each well in a 96-well cell culture plate; after inoculation, the microplate was placed at condition of 37° C., 5% CO2 overnight. 2. Dosing to cells: on the second day of the experiment, the microplate was taken out from incubator, […], of 10× compound was separately added to each well of the microplate, 2 duplicated wells were set for each concentration, 9 dosing concentrations were set for each compound. According to different cell lines, the initial concentration of each compound was different. Upon completion of addition, the microplate was placed at condition of 37° C., 5% CO2 for 72 hours. 3. Data acquisition: the microplate was taken out from the incubator and allowed to stand at room temperature to equilibrate for 30 minutes. 100 μl CellTiter-Glo® Luminescent Cell Viability Assay reaction solution which had been equilibrated at room temperature was added to each well and the microplate was shaken at 1300 rpm for 2 minutes at room temperature. The microplate was centrifuged at 2000 rpm for 1 minute in a HERAEUS Multifuge X1R and then allowed to equilibrate at room temperature for 10 minutes. The […] signal was measured on EnVision™.

BT-474 = assay: Proliferation inhibition assay in vitro, BT-474 (CellTiter-Glo); assay type: cell-based; conditions: Homo sapiens, 72 hours, read-out: IC50(nM) cell BT-474
Experimental: as §3, §4

ErbB2 kinase, sequence (P04626 23-1255): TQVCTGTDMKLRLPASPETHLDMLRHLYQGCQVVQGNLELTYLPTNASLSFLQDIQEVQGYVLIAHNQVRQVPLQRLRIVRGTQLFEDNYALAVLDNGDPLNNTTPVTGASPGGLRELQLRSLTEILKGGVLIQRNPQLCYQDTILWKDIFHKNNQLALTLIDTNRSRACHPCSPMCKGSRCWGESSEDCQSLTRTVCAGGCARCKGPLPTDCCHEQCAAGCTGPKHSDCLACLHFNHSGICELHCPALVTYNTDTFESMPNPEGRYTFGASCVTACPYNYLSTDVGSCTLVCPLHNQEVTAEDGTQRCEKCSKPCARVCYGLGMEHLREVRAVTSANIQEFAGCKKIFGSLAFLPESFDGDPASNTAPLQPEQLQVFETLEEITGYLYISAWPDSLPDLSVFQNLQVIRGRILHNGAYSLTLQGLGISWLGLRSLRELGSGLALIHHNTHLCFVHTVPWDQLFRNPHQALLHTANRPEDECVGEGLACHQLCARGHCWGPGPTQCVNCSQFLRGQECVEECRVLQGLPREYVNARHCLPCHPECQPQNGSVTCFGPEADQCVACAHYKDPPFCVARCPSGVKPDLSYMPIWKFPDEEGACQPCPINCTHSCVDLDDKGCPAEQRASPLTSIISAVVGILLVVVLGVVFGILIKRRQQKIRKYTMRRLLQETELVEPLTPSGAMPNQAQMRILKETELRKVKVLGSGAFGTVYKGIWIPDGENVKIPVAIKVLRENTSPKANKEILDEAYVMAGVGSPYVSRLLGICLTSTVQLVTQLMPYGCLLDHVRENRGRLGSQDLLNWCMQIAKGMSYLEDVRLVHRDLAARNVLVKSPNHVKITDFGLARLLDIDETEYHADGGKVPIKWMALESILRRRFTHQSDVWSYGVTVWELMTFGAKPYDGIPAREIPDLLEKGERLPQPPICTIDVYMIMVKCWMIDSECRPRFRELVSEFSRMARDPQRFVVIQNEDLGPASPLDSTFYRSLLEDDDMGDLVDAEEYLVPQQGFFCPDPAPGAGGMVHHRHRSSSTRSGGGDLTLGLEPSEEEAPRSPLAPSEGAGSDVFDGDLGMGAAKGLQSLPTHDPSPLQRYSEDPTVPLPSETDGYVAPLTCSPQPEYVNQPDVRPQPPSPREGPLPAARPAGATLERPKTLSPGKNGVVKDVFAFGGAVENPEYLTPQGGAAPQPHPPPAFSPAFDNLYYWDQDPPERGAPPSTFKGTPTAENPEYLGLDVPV

Row | SMILES | IC50 (ErbB2 kinase) [nM] | IC50 (EGFR kinase) [nM] | IC50 (N87) [nM] | IC50 (BT-474) [nM]
1 | CC1(C)COC(Nc2ccc3ncnc(Nc4ccc(Oc5cc6nncn6cn5)c(CO)c4)c3c2)=N1 [Embodiment 89, N^4-(3-hydroxymethyl-4-([1,2,4]triazolo[4,3-c]pyrimidin-7-yloxy)phenyl)-N^6-(4,4-dimethyl-4,5-dihydrooxazol-2-yl)quinazolin-4,6-diamine] | 8.5 | 167 |  | 
2 | Cc1cc(Nc2ncnc3ccc(NC4=NCC5(CCOCC5)O4)cc23)ccc1Oc1cc2nncn2cn1 [Embodiment 46, N^4-(4-([1,2,4]triazolo[4,3-c]pyrimidin-7-yloxy)-3-methylphenyl)-N^6-(1,8-dioxa-3-azaspiro[4.5]dec-2-en-2-yl)quinazoline-4,6-diamine] | 12 | 51.6 | 316 | 172
3 | Cc1cc(Nc2ncnc3ccc(NC(=O)/C(C#N)=C/C4CC4)cc23)ccc1Oc1cc2nncn2cn1 [Embodiment 85, (E)-N-(4-((4-([1,2,4]triazolo[4,3-c]pyrimidin-7-yloxy)-3-methylphenyl)amino)quinazolin-6-yl)-2-cyano-3-cyclopropylacrylamide] | 2.2 | 14.9 |  | 
4 | Cc1cc(Nc2ncnc3ccc(NC(=O)Nc4cc(C)n(C(=O)OC(C)(C)C)n4)cc23)ccc1Oc1cc2nncn2cn1 [Embodiment 69, tert-butyl 3-(3-(4-((4-([1,2,4]triazolo[4,3-c]pyrimidin-7-yloxy)-3-methylphenyl)amino)quinazolin-6-yl)ureido)-5-methyl-1H-pyrazol-1-carbamate] | 7 | 92.7 |  | 
5 | C=CC(=O)N1CCC2(CC1)CN=C(Nc1ccc3ncnc(Nc4ccc(Oc5cc6nncn6cn5)c(C)c4)c3c1)O2 [Embodiment 114, 1-(2-((4-((4-([1,2,4]triazolo[4,3-c]pyrimidin-7-yloxy)-3-methylphenyl)amino)quinazolin-6-yl)amino)-1-oxa-3,8-diazaspiro[4,5]dec-2-en-8-yl)-2-acrylamide] | 24.5 | 623 |  | 
6 | Cc1cc(Nc2ncnc3ccc(NC4=NC(C)(C)CO4)cc23)ccc1Oc1cc2ncnn2cn1 [Embodiment 2, N^4-(4-([1,2,4]triazolo[1,5-c]pyrimidin-7-yloxy)-3-methylphenyl)-N^6-(4,4-dimethyl-4,5-dihydrooxazol-2-yl)quinazoline-4,6-diamine] | 16.7 | 230 |  | 
7 | COc1cc2ncnc(Nc3ccc(Oc4cc5nncn5cn4)c(C)c3)c2cc1OC1CCNCC1 [Embodiment 40, N-(4-([1,2,4]triazolo[4,3-c]pyrimidin-7-yloxy)-3-methylphenyl)-7-methoxy-6-(piperidin-4-yloxy)quinazolin-4-amine] | 6.9 | 12.7 |  | 
8 | Cc1cc(Nc2ncnc3ccc(NC(=S)NC(C)(C)CNC(=O)OC(C)(C)C)cc23)ccc1Oc1cc2nncn2cn1 [Embodiment 11, tert-butyl (2-(3-(4-((4-([1,2,4]triazolo[4,3-c]pyrimidin-7-yloxy)-3-methylphenyl)amino)quinazolin-6-yl)thioureido)-2-methylpropyl)carbamate] | 58.1 | > 3330 |  | 
9 | Cc1cc(Nc2ncnc3ccc(NC4=NC(C)(C)CO4)cc23)ccc1Oc1ccn2ncnc2c1 [drawing 219, reference compound] |  | 57.6 | 13.2 | 14.2
10 | Cc1cc(Nc2ncnc3ccc(NC4=NCC5(CCNCC5)O4)cc23)ccc1Oc1cc2nncn2cn1 [Embodiment 28, N^4-(4-([1,2,4]triazolo[4,3-c]pyrimidin-7-yloxy)-3-methylphenyl)-N^6-(1-oxa-3,8-diazaspiro[4.5]dec-2-en-2-yl)quinazoline-4,6-diamine] | 4.79 | 17.7 |  | 
11 | Cc1cc(Nc2ncnc3ccc(NC(=O)N4CCOCC4)cc23)ccc1Oc1cc2nncn2cn1 [Embodiment 6] | 24.8 | 1890 |  | 
12 | Cc1cc(Nc2ncnc3ccc(NC(=S)NCC(C)(C)N)cc23)ccc1Oc1cc2nncn2cn1 [Embodiment 18, 1-(4-((4-([1,2,4]triazolo[4,3-c]pyrimidin-7-yloxy)-3-methylphenyl)amino)quinazolin-6-yl)-3-(2-amino-2-methylpropyl)thiourea] | 13.2 | 79.5 |  | 
13 | Cc1cc(Nc2ncnc3ccc(NC(=O)OC[C@@H]4COCCN4)cc23)ccc1Oc1cc2nncn2cn1 [Embodiment 20, morpholin-3-ylmethyl (S)-(4-((4-([1,2,4]triazolo[4,3-c]pyrimidin-7-yloxy)-3-methylphenyl)amino)quinazolin-6-yl)carbamate] | 4.3 | 40.6 |  | 
14 | Cc1cc(Nc2ncnc3ccc(NC4=NC(C)(C)CO4)cc23)ccc1Oc1ccn2nccc2n1 [reference compound] | 49.4 | 82.7 |  | 
15 | Cc1cc(Nc2ncnc3ccc(NC4=NC(C)(C)CO4)cc23)ccc1Oc1ncn2cnnc2c1O [Embodiment 102, 7-(4-((6-((4,4-dimethyl-4,5-dihydrooxazol-2-yl)amino)quinazolin-4-yl)amino)-2-methylphenoxy)-[1,2,4]triazolo[4,3-c]pyrimidin-8-ol] | 4.5 | 11.4 |  | 
16 | Cc1cc(Nc2ncnc3ccc(/C=C/C(=O)NOCCO)cc23)ccc1Oc1cc2nncn2cn1 | 22.1 | 82.7 |  | 
17 | Cc1cc(Nc2ncnc3ccc(NC(=O)c4cnoc4C)cc23)ccc1Oc1cc2nncn2cn1 [Embodiment 39, N-(4-((4-([1,2,4]triazolo[4,3-c]pyrimidin-7-yloxy)-3-methylphenyl)amino)quinazoline-6-yl)-5-methylisoxazole-4-carboxamide] | 1.8 | 20 |  | 
18 | Cc1cc(Nc2ncnc3ccc(NC(=O)CC#N)cc23)ccc1Oc1cc2nncn2cn1 [Embodiment 37, N-(4-((4-([1,2,4]triazolo[4,3-c]pyrimidin-7-yloxy)-3-methylphenyl)amino)quinazoline-6-yl)-2-cyanoacetamide] | 4.8 | 45.2 |  | 
19 | Cc1cc(Nc2ncnc3ccc(NC(=S)NCC(C)(C)O)cc23)ccc1Oc1cc2nncn2cn1 [Embodiment 113, 1-(4-((4-([1,2,4]triazolo[4,3-c]pyrimidin-7-yloxy)-3-methylphenyl)amino)quinazolin-6-yl)-3-(2-hydroxy-2-methylpropyl)thiourea] | 9.4 | 170 |  | 
20 | Cc1cc(Nc2ncnc3ccc(NC4=NC(C)(C)CO4)cc23)ccc1Oc1ccc2nncn2n1 [reference compound] | 935 | 557 |  | 
21 | C=CC(=O)N1CC2(COC(Nc3ccc4ncnc(Nc5ccc(Oc6cc7nncn7cn6)c(C)c5)c4c3)=N2)C1 [Embodiment 29, 1-(6-((4-((4-([1,2,4]triazolo[4,3-c]pyrimidin-7-yloxy)-3-methylphenyl)amino)quinazolin-6-yl)amino)-7-oxa-2,5-diazaspiro[3.4]oct-5-en-2-yl)prop-2-en-1-one] | 3.6 | 41.8 |  | 
22 | Cc1cc(Nc2ncnc3ccc(NC4=NCC(F)(F)CO4)cc23)ccc1Oc1cc2nncn2cn1 [Embodiment 43, N^4-(4-([1,2,4]triazolo[4,3-c]pyrimidin-7-yloxy)-3-methylphenyl)-N^6-(5,5-difluoro-5,6-dihydro-4H-1,3-oxazin-2-yl)quinazoline-4,6-diamine] | 9.26 | 69.7 |  | 
